From ChEMBL document CHEMBL1781986, “Structure-activity relationships of pyrrole based S-nitrosoglutathione reductase inhibitors: pyrrole regioisomers and propionic acid replacement” (Bioorg Med Chem Lett, 2011)

Key:
[1] = Inhibition of GSNOR expressed in Escherichia coli using GSNO by cuvette method
[2] = Inhibition of GSNOR expressed in Escherichia coli using GSNO by plate method
[3] = Clearance in BALB/c mouse plasma at 2 mg/kg, iv or at 10 mg/kg, po administered as single dose; assay type: ADME, organism-based
[4] = Oral bioavailability in BALB/c mouse at 10 mg/kg administered as single dose; assay type: ADME, organism-based; details: in vivo
A549 = assay: Cytotoxicity against human A549 cells; assay type: functional, cell-based

Row | IC50 [1] | SMILES | further results
1 | 0.41 µM | COc1ccc(-c2ccn(-c3ccc(O)c(C(=O)O)c3)c2-c2ccc(C(N)=O)cc2C)cc1 | –
2 | 0.46 µM | COc1ccc(-c2ccn(-c3ccc(O)c(F)c3)c2-c2ccc(C(N)=O)cc2C)cc1 | –
3 | 3.47 µM | COc1ccc(-c2ccn(-c3ccc(C(=O)O)c(Cl)c3)c2-c2ccc(C(N)=O)cc2C)cc1 | –
4 | 1.57 µM | COc1ccc(-c2ccn(-c3ccc(C(=O)O)c(F)c3)c2-c2ccc(C(N)=O)cc2C)cc1 | –
5 | 8.53 µM | COc1ccc(-c2ccn(-c3ccc(C(=O)O)nc3)c2-c2ccc(C(N)=O)cc2C)cc1 | –
6 | 28.4 µM | COc1ccc(-c2ccn(-c3ccc(S(N)(=O)=O)cc3)c2-c2ccc(C(N)=O)cc2C)cc1 | –
7 | 21.6 µM | COc1ccc(-c2ccn(-c3ccc(O)nc3)c2-c2ccc(C(N)=O)cc2C)cc1 | –
8 | 0.85 µM | COc1ccc(-c2ccn(-c3ccc(C(=O)O)cc3)c2-c2ccc(C(N)=O)cc2C)cc1 | –

Further lines, the molecule ahead of its results:

Row | SMILES | IC50 [1] | further results
9 | COc1cc(Cl)ccc1-c1ccc(CCC(=O)O)n1-c1ccc(C(N)=O)cc1C | – | IC50 [2]: 0.054 µM
10 | COc1ccc(-c2ccn(CC(C)C(=O)O)c2-c2ccc(C(N)=O)cc2C)cc1 (stereo not drawn) | 1.97 µM | –
11 | COc1cc(Cl)ccc1-n1ccc(CCC(=O)O)c1-c1ccc(C(N)=O)cc1C | – | IC50 [2]: 0.049 µM
12 | CCCC(CC(=O)O)n1ccc(-c2ccc(OC)cc2)c1-c1ccc(C(N)=O)cc1C (stereo not drawn) | 63.7 µM | –
13 | COc1ccc(-c2ccn(C(CC(=O)O)c3ccccc3)c2-c2ccc(C(N)=O)cc2C)cc1 (stereo not drawn) | 8.84 µM | –
14 | COc1ccc(-n2ccc(CCC(=O)O)c2-c2ccc(C(N)=O)cc2C)cc1 | – | IC50 [2]: 0.16 µM
15 | COc1ccc(-c2ccc(CCC(=O)O)n2-c2ccc(C(N)=O)cc2C)cc1 | – | IC50 [2]: 0.18 µM; clearance [3]: 35.4 mL/min/kg; bioavailability [4]: 16.2%
16 | COc1ccc(-c2ccn(-c3cc(F)c(O)c(F)c3)c2-c2ccc(C(N)=O)cc2C)cc1 | 0.45 µM | –
17 | COc1ccc(-c2ccn(CC3(C(=O)O)CC3)c2-c2ccc(C(N)=O)cc2C)cc1 | 8.09 µM | –
18 | COc1ccc(-c2ccn(-c3ccc(C(=O)O)cn3)c2-c2ccc(C(N)=O)cc2C)cc1 | 29.6 µM | –
19 | COc1ccc(-c2ccn(CC(F)(F)C(=O)O)c2-c2ccc(C(N)=O)cc2C)cc1 | 1.51 µM | –
20 | COc1ccc(-c2ccn(C(C)CC(=O)O)c2-c2ccc(C(N)=O)cc2C)cc1 (stereo not drawn) | 14.1 µM | –
21 | COc1ccc(-c2ccn(CC(O)C(=O)O)c2-c2ccc(C(N)=O)cc2C)cc1 (stereo not drawn) | 23.5 µM | –
22 | COc1ccc(-c2ccn(C3CCC(C(=O)O)CC3)c2-c2ccc(C(N)=O)cc2C)cc1 (stereo not drawn) | > 100 µM | –
23 | COc1ccc(-c2ccn(C(CC(=O)O)C3CC3)c2-c2ccc(C(N)=O)cc2C)cc1 (stereo not drawn) | > 100 µM | –
24 | COc1ccc(-c2ccn(CCC(=O)O)c2-c2ccc(C(N)=O)cc2C)cc1 | 0.52 µM | IC50 (A549): > 250 µM; IC50 [2]: 0.66 µM; clearance [3]: 52.3 mL/min/kg; bioavailability [4]: 12.2%
25 | COc1ccc(-c2ccn(-c3ccc(O)cn3)c2-c2ccc(C(N)=O)cc2C)cc1 | 3.02 µM | –
26 | COc1ccc(-c2ccn(C(CC(=O)O)C(C)C)c2-c2ccc(C(N)=O)cc2C)cc1 (stereo not drawn) | 97.2 µM | –
27 | COc1ccc(-c2ccn(CC(N)C(=O)O)c2-c2ccc(C(N)=O)cc2C)cc1 (stereo not drawn) | > 100 µM | –
